Results taken from ChEMBL document CHEMBL5257035, “Nucleoside Derived Antibiotics to Fight Microbial Drug Resistance: New Utilities for an Established Class of Drugs?” (J Med Chem, 2016).
In brackets after ≈: the same amount, converted by molar mass.

Key:
[1] = Toxicity in rat; settings: in vivo
Bacillus subtilis = experiment: Antibacterial activity against Bacillus subtilis ATCC 6633 assessed as bacterial growth inhibition by agar diffusion method; assay type: functional
[2] = Inhibition of Bacterial MraY; set-up: species or system Bacteria
[3] = target: T1, Phospho-N-acetylmuramoyl-pentapeptide-transferase (Escherichia coli, UniProt E2QF15); experiment: Inhibition of MraY in Escherichia coli
T1 sequence (E2QF15 whole entry): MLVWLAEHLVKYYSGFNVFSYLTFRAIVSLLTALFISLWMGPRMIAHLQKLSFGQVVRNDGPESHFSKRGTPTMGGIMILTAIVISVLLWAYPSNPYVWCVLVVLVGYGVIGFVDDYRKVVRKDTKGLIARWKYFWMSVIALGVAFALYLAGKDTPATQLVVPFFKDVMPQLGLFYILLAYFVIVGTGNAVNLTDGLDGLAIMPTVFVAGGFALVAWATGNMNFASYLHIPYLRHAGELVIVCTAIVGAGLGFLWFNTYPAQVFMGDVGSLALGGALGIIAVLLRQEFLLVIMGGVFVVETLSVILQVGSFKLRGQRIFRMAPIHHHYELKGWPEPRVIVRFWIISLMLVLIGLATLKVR

[4] = target: T2, Phospho-N-acetylmuramoyl-pentapeptide-transferase (Escherichia coli K-12, UniProt P0A6W3); experiment: Inhibition of MraY in Escherichia coli K12
T2 sequence (P0A6W3 whole entry): T1 sequence (E2QF15 whole entry)

Candida albicans = experiment: Inhibition of Candida albicans chitin synthase at 1 uM relative to control

SMILES | LD50 [1] [mg/kg] | MIC (Bacillus subtilis) [µg/mL] | IC50 [3] [µM] | other results
CC(=O)N[C@H]1[C@H](O[C@@H]2O[C@H](C[C@@H](C)[C@H]3O[C@@H](n4ccc(=O)[nH]c4=O)[C@H](O)[C@@H]3O)[C@H](O)[C@H](O)[C@H]2NC(=O)CC(O)CCCCCCCCCCC(C)C)O[C@@H](CO)[C@H](O)[C@@H]1O (some centres not stated) | 0.137 | 0.1 (≈ 0.116 µM) | – | –
CO[C@H]1[C@H](O[C@@H](C2C(=O)N(Cc3ccccc3)C(=O)N2CCCNC(=O)[C@@H](NC(=O)[C@@H](NC(=O)N[C@H](C(=O)O)C(C)C)[C@@H]2CCNC(=N)N2)[C@@H](O)C(C)C)[C@H]2O[C@@H](n3ccc(=O)[nH]c3=O)[C@H](O)[C@@H]2O)O[C@H](CN)[C@H]1O (some centres not stated) | – | – | – | IC50 [2]: 6.25 µM
CO[C@H]1[C@@H](OC)[C@H](n2ccc(=O)[nH]c2=O)O[C@@H]1[C@@H](O[C@@H]1OC(C(=O)NCCSSCCNC(C)=O)=C[C@@H](O)[C@H]1O)C(N)=O | – | – | 0.01 | –
NC[C@H]1O[C@@H](O[C@@H](CO)[C@H]2O[C@@H](n3ccc(=O)[nH]c3=O)[C@H](O)[C@@H]2O)[C@H](O)[C@@H]1O | – | – | – | IC50 [2]: 5 µM
NC[C@H]1O[C@@H](OC[C@H]2O[C@@H](n3ccc(=O)[nH]c3=O)[C@H](O)[C@@H]2O)[C@H](O)[C@@H]1O | – | – | 25 | IC50 [4]: 10 µM; IC50 [2]: 50 µM
O=C(NC[C@H]1O[C@@H](n2ccc(=O)[nH]c2=O)[C@H](O)[C@@H]1O)[C@@H](O)[C@H](O)C(=O)NC[C@H]1O[C@@H](n2ccc(=O)[nH]c2=O)[C@H](O)[C@@H]1O | – | – | – | inhibition (Candida albicans): 35%
CO[C@H]1[C@@H](O)[C@H](n2ccc(=O)[nH]c2=O)O[C@@H]1[C@@H](O[C@@H]1OC(C(=O)N[C@H]2CSC[C@@H](C)NC2=O)=C[C@@H](O)[C@H]1O)C(N)=O | – | – | 0.058 | –
CO[C@H]1[C@@H](O)[C@H](n2ccc(=O)[nH]c2=O)O[C@@H]1C(OC1OC(C(=O)Nc2ccc(C(O)C(O)C(=O)N/C=C/C(=O)NCC(=O)O)cc2)=CC(O)C1O)C(N)=O (some centres not stated) | – | – | – | IC50 [2]: 0.011 µM
NC[C@H]1O[C@@H](O[C@@H](Cn2cc(CCCCCCCCCCc3ccccc3)nn2)[C@H]2O[C@@H](n3ccc(=O)[nH]c3=O)[C@H](O)[C@@H]2O)[C@H](O)[C@@H]1O | – | – | 8 | –
CCCCCCCCCCc1cn(C[C@H](O[C@@H]2O[C@H](CN)[C@@H](O)[C@H]2O)[C@H]2O[C@@H](n3ccc(=O)[nH]c3=O)[C@H](O)[C@@H]2O)nn1 | – | – | 8 | –
CSCC[C@H](NC(=O)N[C@@H](Cc1c[nH]c2ccccc12)C(=O)O)C(=O)N[C@@H](CN(C)C(=O)[C@@H](N)Cc1cccc(O)c1)C(=O)N/C=C1/C[C@@H](O)[C@H](n2ccc(=O)[nH]c2=O)O1 | – | 12.5 (≈ 14.7 µM) | – | –
CCC(C)CCCCCCCCCCCCCCC(=O)N[C@H]1[C@H](O[C@@H]2O[C@@H](CO)[C@H](O)[C@H](O)[C@H]2NC(C)=O)O[C@H](C[C@@H](C)[C@H]2O[C@@H](n3ccc(=O)[nH]c3=O)[C@H](O)[C@@H]2O)[C@H](O)[C@@H]1O (some centres not stated) | 0.137 | 0.1 (≈ 0.113 µM) | – | –
CC(=O)N[C@H]1[C@H](O[C@@H]2O[C@H](C[C@@H](C)[C@H]3O[C@@H](n4ccc(=O)[nH]c4=O)[C@H](O)[C@@H]3O)[C@H](O)[C@H](O)[C@H]2NC(=O)/C=C/CCCCCCCCCCC(C)C)O[C@@H](CO)[C@H](O)[C@@H]1O | 0.137 | 0.1 (≈ 0.119 µM) | – | –
CCC(C)CCCCCCCCCCCC/C=C/C(=O)N[C@H]1[C@H](O[C@@H]2O[C@@H](CO)[C@H](O)[C@H](O)[C@H]2NC(C)=O)O[C@H](C[C@@H](C)[C@H]2O[C@@H](n3ccc(=O)[nH]c3=O)[C@H](O)[C@@H]2O)[C@H](O)[C@@H]1O (some centres not stated) | 0.137 | 0.1 (≈ 0.113 µM) | – | –
CCC(C)CCCCCCCCCC/C=C/C(=O)N[C@H]1[C@H](O[C@@H]2O[C@@H](CO)[C@H](O)[C@H](O)[C@H]2NC(C)=O)O[C@H](C[C@@H](C)[C@H]2O[C@@H](n3ccc(=O)[nH]c3=O)[C@H](O)[C@@H]2O)[C@H](O)[C@@H]1O (some centres not stated) | 0.137 | 0.1 (≈ 0.117 µM) | – | –
CC(=O)N[C@H]1[C@H](O[C@@H]2O[C@H](C[C@@H](C)[C@H]3O[C@@H](n4ccc(=O)[nH]c4=O)[C@H](O)[C@@H]3O)[C@H](O)[C@H](O)[C@H]2NC(=O)/C=C/CCCCCCCCCCCCC(C)C)O[C@@H](CO)[C@H](O)[C@@H]1O | 0.137 | 0.1 (≈ 0.115 µM) | – | –
N=C(N)NC[C@H]1O[C@@H](OC[C@H]2O[C@@H](n3ccc(=O)[nH]c3=O)[C@H](O)[C@@H]2O)[C@H](O)[C@@H]1O | – | – | 25 | –
NC(=O)[C@H](O)[C@@H](O)C(=O)NC[C@H]1O[C@@H](n2ccc(=O)[nH]c2=O)[C@H](O)[C@@H]1O | – | – | – | inhibition (Candida albicans): 12%
NC[C@H]1O[C@@H](O[C@@H](Cn2cc(Cc3ccc(COc4ccc(C(=O)c5ccccc5)cc4)cc3)nn2)[C@H]2O[C@@H](n3ccc(=O)[nH]c3=O)[C@H](O)[C@@H]2O)[C@H](O)[C@@H]1O | – | – | 8 | –
